Laboratory results from patent US10947242B2, “[1,2,4]triazolo[1,5and#8208;A]pyrimidine compounds as PDE2 inhibitors” (Janssen Pharmaceutica NV, priority 2016, dated 2021).
pIC50: −log10 of the molar value. “And” between values parts separate entries of the source, which are not always exact repeats. Identical values can stand only once. Like-named read-outs stand apart in the source and are kept apart here.

What was measured:
[1] = molecular target: T1, Human recombinant PDE2A (hPDE2A) (Homo sapiens, UniProt O00408); test: In vitro assay PDE2A (SPA, 3H-cGMP hydrolysis); type: biochemical; details: for IC50: read-out: hPDE2A pIC50 (converted); for Emax: read-out: hPDE2A Emax
T1 construct: His tag (inferred from metal chelate purification); made in house; host or cells: Sf9 insect cells (baculovirus)
T1 sequence (O00408 whole entry): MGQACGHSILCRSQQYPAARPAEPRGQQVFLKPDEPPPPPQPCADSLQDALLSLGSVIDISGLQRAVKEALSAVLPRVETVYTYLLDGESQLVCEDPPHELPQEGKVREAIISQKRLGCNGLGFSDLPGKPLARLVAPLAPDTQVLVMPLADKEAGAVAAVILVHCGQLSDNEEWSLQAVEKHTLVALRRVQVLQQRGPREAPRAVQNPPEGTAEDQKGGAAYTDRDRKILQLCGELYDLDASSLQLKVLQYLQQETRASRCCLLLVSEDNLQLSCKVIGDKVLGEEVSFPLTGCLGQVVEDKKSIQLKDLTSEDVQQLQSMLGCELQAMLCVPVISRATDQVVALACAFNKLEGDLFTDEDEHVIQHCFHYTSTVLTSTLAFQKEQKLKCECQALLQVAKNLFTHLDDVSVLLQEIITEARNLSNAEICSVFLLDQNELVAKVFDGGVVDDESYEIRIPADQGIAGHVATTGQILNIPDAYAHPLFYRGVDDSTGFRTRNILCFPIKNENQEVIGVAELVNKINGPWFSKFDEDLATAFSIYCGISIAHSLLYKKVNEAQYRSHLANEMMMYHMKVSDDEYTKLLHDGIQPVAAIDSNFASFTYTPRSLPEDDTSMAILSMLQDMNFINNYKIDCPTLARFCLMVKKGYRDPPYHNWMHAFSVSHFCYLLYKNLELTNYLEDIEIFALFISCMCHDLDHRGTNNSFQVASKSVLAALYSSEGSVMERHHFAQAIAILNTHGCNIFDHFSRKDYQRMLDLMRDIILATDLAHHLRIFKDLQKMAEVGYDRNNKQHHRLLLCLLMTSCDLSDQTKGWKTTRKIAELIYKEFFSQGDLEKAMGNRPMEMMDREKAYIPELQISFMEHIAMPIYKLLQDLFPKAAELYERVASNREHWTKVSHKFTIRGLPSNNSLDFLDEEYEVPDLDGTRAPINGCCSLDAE

PDE2A = molecular target: T2, PDE2A (Rattus norvegicus, UniProt Q01062); test: PDE2 occupancy by test compounds, ex-vivo autoradiography with [3H]B-17a; type: in vivo, Male Wistar rats; details: for receptor occupancy at 10 mg/kg: percentage receptor occupancy, ex-vivo autoradiography, striatum; for ED50: drug dose producing 50% receptor occupancy, read-out: PDE Occupancy ED50
T2 construct: Twenty μm-thick striatal sections were cut; from tissue; host or cells: rat brain, striatal sections
T2 sequence (Q01062 1-928): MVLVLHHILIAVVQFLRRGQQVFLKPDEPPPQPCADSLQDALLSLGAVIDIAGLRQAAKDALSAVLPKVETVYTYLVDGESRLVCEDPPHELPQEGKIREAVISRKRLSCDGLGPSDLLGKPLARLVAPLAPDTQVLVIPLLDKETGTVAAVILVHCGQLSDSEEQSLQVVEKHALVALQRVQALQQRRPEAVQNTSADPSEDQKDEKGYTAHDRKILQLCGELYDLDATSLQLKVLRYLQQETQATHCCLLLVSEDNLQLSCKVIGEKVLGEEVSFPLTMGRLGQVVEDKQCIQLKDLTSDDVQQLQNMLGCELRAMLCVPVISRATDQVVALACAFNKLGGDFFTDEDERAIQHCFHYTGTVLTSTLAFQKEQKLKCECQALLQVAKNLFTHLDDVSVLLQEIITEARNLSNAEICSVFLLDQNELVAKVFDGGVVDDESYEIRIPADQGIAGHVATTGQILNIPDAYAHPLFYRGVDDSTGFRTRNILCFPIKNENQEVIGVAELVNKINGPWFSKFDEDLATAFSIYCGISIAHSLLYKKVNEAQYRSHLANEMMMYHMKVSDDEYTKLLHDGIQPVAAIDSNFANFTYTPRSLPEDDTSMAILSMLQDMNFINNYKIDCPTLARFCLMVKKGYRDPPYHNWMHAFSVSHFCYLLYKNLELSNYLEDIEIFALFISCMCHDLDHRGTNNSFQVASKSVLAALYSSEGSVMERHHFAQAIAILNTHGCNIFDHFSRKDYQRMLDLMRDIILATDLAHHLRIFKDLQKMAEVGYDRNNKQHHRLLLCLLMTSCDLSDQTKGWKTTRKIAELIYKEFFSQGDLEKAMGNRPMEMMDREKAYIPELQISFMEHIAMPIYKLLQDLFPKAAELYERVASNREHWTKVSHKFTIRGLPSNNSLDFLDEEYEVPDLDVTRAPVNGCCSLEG

[2] = molecular target: T3, Human recombinant PDE10A (hPDE10A) (Homo sapiens, UniProt Q9Y233); test: In vitro assay PDE10A, human clone (SPA, 3H-cAMP hydrolysis); type: biochemical
T3 construct: His tag (inferred from metal chelate purification); made in house; host or cells: Sf9 insect cells (baculovirus)
T3 sequence (Q9Y233 267-1055): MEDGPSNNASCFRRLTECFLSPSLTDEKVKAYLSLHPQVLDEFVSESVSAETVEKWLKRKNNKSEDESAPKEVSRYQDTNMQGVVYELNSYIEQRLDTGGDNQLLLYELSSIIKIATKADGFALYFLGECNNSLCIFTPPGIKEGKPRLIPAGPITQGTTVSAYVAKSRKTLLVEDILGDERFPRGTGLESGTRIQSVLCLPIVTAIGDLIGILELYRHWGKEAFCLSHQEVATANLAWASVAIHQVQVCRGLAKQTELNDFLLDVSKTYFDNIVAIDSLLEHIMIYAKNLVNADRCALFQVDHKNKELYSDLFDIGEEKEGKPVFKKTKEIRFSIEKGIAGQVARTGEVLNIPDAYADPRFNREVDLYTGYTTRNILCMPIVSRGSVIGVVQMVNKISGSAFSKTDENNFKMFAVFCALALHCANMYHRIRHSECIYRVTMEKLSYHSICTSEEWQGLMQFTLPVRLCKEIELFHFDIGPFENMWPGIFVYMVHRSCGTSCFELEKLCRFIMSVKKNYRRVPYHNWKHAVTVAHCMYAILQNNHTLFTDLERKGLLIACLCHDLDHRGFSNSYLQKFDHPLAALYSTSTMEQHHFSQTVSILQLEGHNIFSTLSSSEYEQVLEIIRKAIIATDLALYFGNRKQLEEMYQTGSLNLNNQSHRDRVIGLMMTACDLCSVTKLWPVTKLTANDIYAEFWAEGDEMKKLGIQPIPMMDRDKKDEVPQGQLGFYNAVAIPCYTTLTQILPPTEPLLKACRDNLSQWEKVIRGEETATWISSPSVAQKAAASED
How it was run: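 Hydrolysis of 3H-cAMP (60 nM cAMP, 0.008 μCi tracer) proceeded for 60 min at room temperature, with the product detected by SPA bead scintillation counting. The enzyme was hPDE10A from baculovirus-infected Sf9 cells in Tris pH 7.8 buffer with MgCl2 and EGTA, and compounds were at 1% DMSO final. Blanks lacked enzyme.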

[3] = molecular target: T4, Human recombinant PDE3A (hPDE3A) (Homo sapiens, UniProt Q14432); test: In vitro assay PDE3A (SPA, 3H-cAMP hydrolysis); type: biochemical; details: for IC50: hPDE3B pIC50, read-out: pIC50 (converted); for Emax: read-out: hPDE3B Emax, read-out: Emax;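 on all read-outs here: the method names PDE3A and the table heading PDE3B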
T4 construct: purchased Scottish Biomedical; host or cells: Sf9 insect cells
T4 sequence (Q14432 whole entry): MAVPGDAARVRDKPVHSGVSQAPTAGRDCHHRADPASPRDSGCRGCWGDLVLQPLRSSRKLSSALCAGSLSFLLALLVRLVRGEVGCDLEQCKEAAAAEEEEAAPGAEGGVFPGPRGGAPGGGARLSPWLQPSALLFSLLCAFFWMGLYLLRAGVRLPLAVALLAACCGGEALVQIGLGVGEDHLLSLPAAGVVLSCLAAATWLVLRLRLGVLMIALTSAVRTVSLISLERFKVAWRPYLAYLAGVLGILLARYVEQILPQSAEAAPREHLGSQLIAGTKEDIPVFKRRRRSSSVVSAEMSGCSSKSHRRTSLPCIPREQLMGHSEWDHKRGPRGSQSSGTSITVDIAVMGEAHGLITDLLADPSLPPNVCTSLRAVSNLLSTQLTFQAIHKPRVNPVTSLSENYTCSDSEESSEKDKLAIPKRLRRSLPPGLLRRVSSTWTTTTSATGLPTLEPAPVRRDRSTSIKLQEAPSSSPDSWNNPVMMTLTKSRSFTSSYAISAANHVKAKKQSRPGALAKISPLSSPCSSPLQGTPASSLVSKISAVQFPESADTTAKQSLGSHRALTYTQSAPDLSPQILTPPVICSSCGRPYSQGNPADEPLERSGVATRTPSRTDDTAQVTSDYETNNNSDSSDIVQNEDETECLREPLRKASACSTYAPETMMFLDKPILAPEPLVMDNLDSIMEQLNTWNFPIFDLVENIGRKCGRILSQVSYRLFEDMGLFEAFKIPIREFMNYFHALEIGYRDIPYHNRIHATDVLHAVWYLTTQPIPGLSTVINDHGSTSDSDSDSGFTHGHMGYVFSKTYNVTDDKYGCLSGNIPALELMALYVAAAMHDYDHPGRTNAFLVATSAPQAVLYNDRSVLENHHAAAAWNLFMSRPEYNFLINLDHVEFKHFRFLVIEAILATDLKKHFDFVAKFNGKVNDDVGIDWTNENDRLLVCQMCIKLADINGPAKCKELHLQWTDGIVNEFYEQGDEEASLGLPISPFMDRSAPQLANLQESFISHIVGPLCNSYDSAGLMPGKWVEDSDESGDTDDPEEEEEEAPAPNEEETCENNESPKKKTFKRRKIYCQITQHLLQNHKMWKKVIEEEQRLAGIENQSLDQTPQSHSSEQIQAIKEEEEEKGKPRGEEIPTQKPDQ
How it was run: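 Radiometric SPA measuring [3H]-cAMP hydrolysis (0.4 μM cAMP, 2.4 μCi/ml) over 60 min at room temperature, in Tris pH 7.8 buffer with MgCl2 and EGTA, 1% DMSO. Enzyme: recombinant human brain PDE3A expressed in Sf9 cells, used as partially purified lysate. Counts compared with enzyme-free blanks and vehicle controls.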

[4] = human recombinant PDE2A, 10 μM cGMP substrate
[5] = human clone (h), default, read-out: hPDE10A2 Emax
[6] = human clone (h), default, read-out: hPDE10A2 pIC50 (converted)
[7] = hPDE2A pIC50, human recombinant PDE2A, 10 μM cGMP substrate
[8] = human clone by default (no (r) mark), read-out: hPDE10A2 or rPDE10A2 Emax
[9] = human clone by default (no (r) mark), read-out: hPDE10A2 or rPDE10A2 pIC50 (converted)

Row | SMILES | IC50 [1, 4] | Emax ([1]; human recombinant PDE2A) [%] | Emax [1] [%] | IC50 [1] [µM] | receptor occupancy at 10 mg/kg (PDE2A; sc, route SC (subcutaneous)) [%] | melting point [°C] | hPDE10A2 Emax ([2]; human clone (h), default) | Emax [2, 5] [%] | IC50 [2, 6] | IC50 [3] [µM] | Emax [3] [%] | receptor occupancy at 10 mg/kg (PDE2A; po, route PO (oral)) [%] | ED50 (PDE2A; route PO (oral)) [mg/kg] | Emax [2, 8] [%] | IC50 [2, 9] [µM] | pIC50 ([1]; hPDE2A pIC50) | pIC50 [1, 7]
1 | C[C@@H]1CCN(C(=O)c2ccnc(C3CC3)c2F)C[C@H]1c1cc(C(F)F)nc2ncnn12 [Compound 120] | 0.00174 µM | 100 | 100 | 0.00174 |  | 173.99 |  | 96 | 0.2 µM | 0.708 | 95 | 12 |  |  |  |  | 
2 | Cc1cc(C)cc(C(=O)N2CC[C@@H](C)[C@H](c3cc(C(F)F)nc4ncnn34)C2)c1 [Compound 123] |  |  | 99 |  |  | 203.87 |  | 99 | 0.0912 µM | 1.62 | 87 | 4 |  |  |  | 8.71 | 8.71
3 | Cc1csc(C(=O)N2CC[C@@H](C)[C@H](c3cc(C(F)F)nc4ncnn34)C2)c1 [Compound 126] | 0.00209 µM | 101 | 101 | 0.00209 |  | 114.32 |  | 97 | 0.112 µM | 6.03 | 65 | 31 |  |  |  |  | 
4 | Cc1cc(C(=O)N2CC[C@@H](C)[C@H](c3cc(C(F)F)nc4ncnn34)C2)cc(Cl)c1F [Compound 129] |  |  | 101 |  |  | 140.78 |  | 99 | 0.0912 µM | 1.95 | 85 | 21 |  |  |  | 8.64 | 8.64
5 | Cc1cc(C#N)cc(C(=O)N2CC[C@@H](C)[C@H](c3cc(C(F)F)nc4ncnn34)C2)c1 [Compound 131] |  |  | 98 |  |  | 224.39 |  | 99 | 0.0407 µM | 7.76 | 61 | 0 |  |  |  | 8.61 | 8.61
6 | Cc1cc(C(=O)N2CC[C@@H](C)[C@H](c3cc(C(F)F)nc4ncnn34)C2)cc(C(F)(F)F)n1 [Compound 132] | 0.00251 µM | 101 | 101 | 0.00251 | 76 | 116.57 |  | 98 | 0.2 µM | > 10 | 46 |  | 5 |  |  |  | 
7 | Cc1cc(C(=O)N2CC[C@@H](C)[C@H](c3cc(C(F)F)nc4ncnn34)C2)cc(F)c1F [Compound 189] |  |  | 100 |  |  | 152.03 |  | 96 | 0.186 µM | 2.75 | 80 | 9 |  |  |  | 8.29 | 8.29
8 | Cc1cc([C@@H]2CN(C(=O)c3cc(C4CC4)ncc3F)CC[C@H]2C)n2ncnc2n1 [Compound 224] |  |  | 100 | 0.00302 |  | 153.14 |  |  |  | 1.05 | 87 | -6 |  | 99 | 0.0708 |  | 
9 | COc1cc(C(=O)N2CC[C@@H](C)[C@H](c3cc(C)nc4ncnn34)C2)c(F)cn1 [Compound 225] |  |  | 99 | 0.0115 |  | 178.64 |  |  |  | 1.78 | 83 | -6 |  | 98 | 0.0933 |  | 
10 | Cc1cc([C@@H]2CN(C(=O)c3cc(Cl)ncc3C(F)(F)F)CC[C@H]2C)n2ncnc2n1 [Compound 270] |  |  | 100 | 0.00234 |  | 213.25 |  | 96 | 0.269 µM | > 10 | 29 | 6 |  | 96 | 0.269 |  | 

Second part, led by results:

Row | IC50 [1, 4] | Emax ([1]; human recombinant PDE2A) [%] | Emax [1] [%] | IC50 [1] [µM] | receptor occupancy at 10 mg/kg (PDE2A; sc, route SC (subcutaneous)) [%] | melting point [°C] | hPDE10A2 Emax ([2]; human clone (h), default) | Emax [2, 5] [%] | IC50 [2, 6] | IC50 [3] [µM] | Emax [3] [%] | receptor occupancy at 10 mg/kg (PDE2A; po, route PO (oral)) [%] | ED50 (PDE2A; route PO (oral)) [mg/kg] | Emax [2, 8] [%] | IC50 [2, 9] [µM] | SMILES | pIC50 ([1]; hPDE2A pIC50) | pIC50 [1, 7]
11 | 0.00115 µM and 0.00112 µM | 100 | 101 | 0.00112 | 3 | 192.09 | 98 | 99 | 0.00977 µM and 0.0794 µM | 2.19 | 82 |  |  |  |  | C[C@@H]1CCN(C(=O)c2ccc3ocnc3c2)C[C@H]1c1cc(C(F)F)nc2ncnn12 [Compound 116] |  | 
12 | 0.00186 µM | 100 | 100 | 0.00186 |  | 160.2 |  | 100 | 0.0741 µM | 1.82 | 86 | 0 |  |  |  | COc1cc(C(=O)N2CC[C@@H](C)[C@H](c3cc(C(F)F)nc4ncnn34)C2)cc(C(C)C)n1 [Compound 122] |  | 
13 | 0.00224 µM | 99 | 99 | 0.00224 | 53 | 139.13 |  | 99 | 0.0257 µM | 0.437 | 94 | 34 |  |  |  | Cc1nc2ccc(C(=O)N3CC[C@@H](C)[C@H](c4cc(C(F)F)nc5ncnn45)C3)cc2o1 [Compound 127] |  | 
14 | 0.00245 µM | 100 | 100 | 0.00245 |  | 193.85 |  | 96 | 0.135 µM | 1.74 | 87 | 0 |  |  |  | COc1cc(C(=O)N2CC[C@@H](C)[C@H](c3cc(C(F)F)nc4ncnn34)C2)ccc1Cl [Compound 130] |  | 
15 | 0.00295 µM | 100 | 100 | 0.00295 |  | 152.33 |  | 98 | 0.135 µM | 1.62 | 85 | -19 |  |  |  | COc1ccc(C(=O)N2CC[C@@H](C)[C@H](c3cc(C(F)F)nc4ncnn34)C2)cc1OC(F)F [Compound 133] |  | 
16 | 0.0129 µM | 100 | 100 | 0.0129 |  | 162.07 |  | 97 | 0.224 µM | 3.89 | 74 | -18 |  |  |  | C[C@@H]1CCN(C(=O)c2ccc(F)c(C(F)F)c2)C[C@H]1c1cc(C(F)F)nc2ncnn12 [Compound 191] |  | 
17 | 0.00933 µM | 99 | 99 | 0.00933 |  | 110.16 |  | 99 | 0.0724 µM | 0.724 | 95 | -13 |  |  |  | C[C@@H]1CCN(C(=O)c2ccc(OC(F)F)c(F)c2)C[C@H]1c1cc(C(F)F)nc2ncnn12 [Compound 192] |  | 
18 | 0.000224 µM | 100 | 100 | 0.000224 | 92 | 178.21 |  | 100 | 0.017 µM | 1.2 | 91 |  | 1.5 | 100 | 0.017 | C[C@@H]1CCN(C(=O)c2ccc3ncsc3c2)C[C@H]1c1cc(C(F)F)nc2ncnn12 [Compound 228] |  | 
